The results in this text go back to US20250339531A1, “DUX4 POLYPEPTIDES AND NUCLEIC ACIDS FOR TREATING INFLAMMATORY AND AUTOIMMUNE CONDITIONS” (Fred Hutchinson Cancer Center, priority 2021, published 2025).

What all share (format): cell-based, human
For experiment [1], the system named is MHC class I proteins (HLA-A/B/C). The experiment in a line: Immunoblot of IFNG-induced MHC class I protein, continuous or pulsed protocol, MB135 myoblasts. To be noted: MB135 cells; for suppression of IFNG-induced MHC class I protein, pulsed protocol: 4 h doxycycline pulse, IFNG added later for 16 h; for suppression of IFNG-induced MHC class I protein, continuous protocol: doxycycline 20 h, IFNG last 16 h. On the procedure: In the “continuous” protocol (similar to the experiments shown in the prior FIGS. 1, 2, 4, 5, and 6), doxycycline is added to induce DUX4 expression at time 0 and four hours later IFNG is added for an additional 16 hours, resulting in 20 hours of continuous DUX4 induction with the last 16 hrs exposed to IFNG.
In the “pulsed” protocol, doxycycline is added at time 0 to induce DUX4 expression, but after four hours the media is changed to remove the doxycycline, resulting in a pulse of DUX4 mRNA and protein sufficient to induce DUX4 target gene expression (see Resnick et al., Cell Rep. 2019 Nov. 12; 29(7):1812-1820.e5). IFNG is added at 28 hours for a period of 16 hours prior to harvesting the cells. […] This difference is not likely to be due to different amounts of the DUX4 and mutant DUX4 proteins because at the time of harvest both DUX4 and the F67A mutant DUX4 protein levels have declined to similarly low amounts relative to the continuous protocol, but could be due to the activation of DUX4 target genes by the full-length DUX4 since the H3.X/Y proteins show persistent expression in the pulsed protocol.
(§1) Protein samples were harvested in RIPA buffer [150 mM NaCl, 1% NP-40, 0.5% Na-deocycholate, 1% SDS, 25 mM Tris-HCl pH7.4] supplemented with protease and phosphatase inhibitor tablets (Pierce), followed by sonication in Diagenode Bioruptor. Lysate was cleared by centrifugation at 16000×g and quantified using a Pierce BCA assay (Thermo Fisher Scientific). Samples were run on NuPAGE precast polyacrylamide gels (Invitrogen) and transferred to PVDF membrane. Membranes were blocked in PBS containing 0.1% Tween-20 and 5% non-fat dry milk before overnight incubation at 4° C. with primary antibodies (see resource table for a list of antibodies used in this study). Membranes were incubated with horseradish peroxidase-conjugated secondary antibodies for 1 hour at room temperature and SuperSignal chemiluminescent substrate (Thermo Scientific) was used for detection on film with a Mini-medical 90 processor. Membranes were stripped with Restore Western Blot Stripping Buffer (Pierce).
Background: In western blotting, separated proteins are transferred to a membrane and probed.

In experiment [2] the test system is HLA-A, HLA-B, HLA-C, PSMB8, PSMB9, PSMB10 mRNA nuclear export. The experiment is described as follows: Subcellular fractionation of nuclear and cytoplasmic mRNAs and proteins. To be noted: DUX4 pulse, IFNG, 44 hours, data not shown. On the procedure:
MB135iDUX4 myoblasts were pulsed with doxycycline for 4 hours, incubated for 24 hours, supplemented with 50 ng/mL IFNG for 16 hours, and harvested at a terminal time point of 44 hours. Samples divided for whole-cell lysate (WCL) and subcellular fractionation were suspended in 300 μL ice-cold Cyto-lysis buffer (10 mM Tris pH 7.4, 10 mM NaCl, 0.2% NP-40, 1 mM DTT in nuclease free water). Subcellular fractionation samples were centrifuged at 650 RCF to pellet nuclei while cytoplasmic lysate remained in the supernatant. WCL, cytoplasmic, nuclear RNA and protein were harvested for RT-qPCR and immunoblotting, respectively.

In experiment [3] the test system is RPL10A, RPL4, RPS6, RPS15A, MYOD1, DES. The experiment is described as follows: Immunoblot of ribosomal proteins and myogenic factors. To be noted: DUX4 pulse+IFNG relative to IFNG. On the procedure: as §1
The test system of experiment [4] is MHC class I proteins (HLA-A/B/C). The experiment is described as follows: Immunoblot of IFNG-induced MHC class I protein, continuous or pulsed protocol, MB135 myoblasts. The conditions noted are these: 4 h doxycycline pulse, IFNG 28, 52 or 76 h later.
Experiment [5] relates to STAT1 binding to ISG promoters (GBP1, IDO1, CXCL10). The experiment is described as follows: STAT1 chromatin immunoprecipitation (ChIP-qPCR) at ISG promoters. The conditions noted are these: MB135-iDUX4-CTD cells, IFNG ± doxycycline. On the procedure:
Chromatin immunoprecipitation (ChIP) was performed as previously described (Nelson et al 2006) with the following modifications: Cells were plated and allowed to grow to 70-80% confluence. Pelleted nuclei were sonicated on a Diagenode Biruptor on “Low” for 10 min as 30 sec on/30 sec off, followed by 6 rounds of sonication on “High” for 10 min each as 30 sec on/30 sec off (70 minutes total sonication) in IP Buffer+0.5% SDS. For immunoprecipitation, 500 ng of chromatin was set aside per condition as an “Input” and 4 μg of antibody was added to 10 μg of chromatin in an equal volume of IP Buffer+0.5% SDS across samples. IP Buffer (150 mM NaCl, 50 mM Tris-HCl pH 7.4, 5 mM EDTA, 1% Triton X-100, 0.5% NP-40, +Roche complete mini protease inhibitor EDTA-free) was added to lower the percentage of SDS <0.1%, and tubes were incubated with rotation overnight at 4° C. During this time, protein-A agarose Fastflow beads (Millipore) were washed twice with IP Buffer and then blocked in IP Buffer containing 2% BSA by rotating overnight at 4° C. After clearing the chromatin as described, beads were aliquoted to fresh tubes and the top 90% of chromatin was transferred to the tubes containing the blocked bead slurry. Tubes were rotated for 1 hour at 4° C. […]

“Also recorded” adds a separate entry of the source.

For the substance “DUX4: human DUX4 protein SEQ ID NO:3 expressed from doxycycline inducible codon altered transgene SEQ ID NO:2”, the “suppression of IFNG-induced MHC class I protein, pulsed protocol” value was “more profound suppression of the MHC class I proteins; also recorded: even more effectively in the pulsed protocol; also recorded: elicited the same degree of suppression when assayed forty-four hours later; also recorded: suppressed HLA-A/B/C proteins even a day later” in experiment [1]; “suppresses MHC class I expression as well, or slightly better, in the pulsed protocol than in the continuous protocol” in experiment [1] (listed as full-length DUX4); “suppressed MHC-I and immunoproteasome subunits” in experiment [1] (listed as wildtype DUX4). Also, the “suppression of IFNG-induced MHC class I protein, continuous protocol” value is “modest suppression of MHC class I protein; also recorded: suppresses MHC class I proteins; also recorded: IFNG-induction of MHC-I and the immunoproteasome was suppressed; also recorded: MHC class I induction, but not HLA-E is blocked” in experiment [1]; “suppress the IFNG induction of MHC class I expression” in experiment [1] (listed as full-length DUX4); “suppressed IFNG-induced MHC-I and the immunoproteasome expression” in experiment [1] (listed as wildtype DUX4). Further, the “mRNA nuclear export and protein localization to the cytoplasm” value in experiment [2] is “did not disrupt”. Also, the “protein levels of ribosomal proteins and myogenic factors” value in experiment [3] was “RPL10A, RPL4, RPS6, and RPS15A are suppressed by DUX4; also recorded: both were suppressed at the protein level”. Further, the “duration of MHC class I protein suppression after a pulse” value in experiment [4] was “at Least Four Days; also recorded: becomes more pronounced between 24 and 72 hours after a pulse of DUX4; also recorded: for nearly four days; also recorded: suppressed MHC class I even four days later; also recorded: persists days after a DUX4 pulse”.
Take “longCTD: 3×FLAG tag and nls in frame with carboxyterminal 271 amino acids of DUX4 (aa154-424), SEQ ID NOS: 8-9”: the “STAT1 occupancy at ISG promoters” value in experiment [5] is recorded as “diminished STAT1 occupancy at all three ISGs; also recorded: moderately decreases STAT1 occupancy at ISG promoters”.
